Laboratory results from paper PMC8151276, “An Integrated Approach toward NanoBRET Tracers for Analysis of GPCR Ligand Engagement” (Molecules, 2021).

Legend:
Format in all cases: binding
ADRB1 = target: T1, ADRB1 (Homo sapiens, UniProt P08588); experiment: NanoBRET screen HiBiT-ADRB1 in HEK293
T1 construct: purchased Promega (in-house HiBiT-GPCR construct library, NanoBRET)

GALR2 = target: T2, GALR2 (Homo sapiens, UniProt O43603); experiment: NanoBRET screen HiBiT-GALR2 in HEK293
T2 construct: purchased Promega (in-house HiBiT-GPCR construct library, NanoBRET)
T2 sequence (O43603 1-387): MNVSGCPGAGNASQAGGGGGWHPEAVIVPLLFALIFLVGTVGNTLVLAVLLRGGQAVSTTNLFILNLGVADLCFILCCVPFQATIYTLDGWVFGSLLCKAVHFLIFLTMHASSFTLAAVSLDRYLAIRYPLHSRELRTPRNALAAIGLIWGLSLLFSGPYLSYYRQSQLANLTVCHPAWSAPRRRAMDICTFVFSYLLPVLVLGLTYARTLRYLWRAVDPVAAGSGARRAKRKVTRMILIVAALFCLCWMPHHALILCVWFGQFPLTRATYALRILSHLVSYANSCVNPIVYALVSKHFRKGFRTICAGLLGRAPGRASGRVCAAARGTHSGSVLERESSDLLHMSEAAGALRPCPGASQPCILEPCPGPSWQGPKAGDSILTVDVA
Method: (§1) Each tracer candidate was screened across the entire library of HiBiT-GPCR constructs using NanoBRET as the detection modality. As depicted in Figure 4A, the specificity of interactions was evaluated through decrease in BRET due to competitive displacement of a bound tracer by excess parental compound. Each tracer was analyzed for binding to each HiBiT-GPCR fusion in the absence and in the presence of competing parental compound. Briefly, HEK293 cells were transfected with HiBiT-GPCR constructs diluted into promoterless DNA to reduce expression and maximize translocation to the cell surface. Each tracer candidate was then screened at concentrations of 1 μM and 0.1 μM across cells expressing these fusions. Cells were treated for 1.5 h with tracer either alone or in the presence of 20 μM competing parental compound (i.e., control). BRET was measured upon addition of purified LgBiT and subsequent complementation with HiBiT genetically fused to a GPCR. The specificity of interactions was assessed through a decrease in BRET signal due to competitive displacement of the bound tracer. To further gauge the robustness of these interactions, the fold response over the control (i.e., BRETtracer/BRETcontrol) was calculated. We chose a 1.5-fold response, which translates to ≥7-fold signal over noise as the minimal threshold required to score an interaction as positive. […]. Below we highlight the screening results obtained for our exemplary fluorescent tracers based on Clozapine, Amitriptyline and AZD1283.
(§2) HiBiT-GPCR DNA constructs were diluted in 10 mM Tris pH 8 to a final concentration of 0.01 μg/μL, arrayed in 96-well plates and stored at −20 °C. For transfection, HEK293 cells were suspended in Opti-MEM (without phenol red) supplemented with 2% fetal bovine serum (Seradigm) and 100 units/mL penicillin–streptomycin (Gibco) at a final concentration of 220,000 cells/mL and dispensed into white 96-well plates at 90 μL/well. Subsequent transfections and screens were carried using an Agilent Bravo Automated Liquid Handling Platform. First, the 96-well HiBiT DNA arrays were diluted 25-fold in Opti-MEM (without serum or phenol red) to a final concentration of 0.0004 μg/μL and 20 μL of the diluted DNAs were transferred into new 96-well plates. Next, promoterless carrier DNA (1 μg/μL) was diluted 25-fold (0.04 μg/μL) and then dispensed into the diluted arrays at 20 μL/well. Following brief mixing, Viafect transfection reagent (Promega) diluted 16-fold into Opti-MEM was dispensed into the plates at 40 μL/well. After mixing by pipetting, plates were incubated for 10 min on the pipetting station deck. The DNA-transfection reagent complexes were then added to plates containing cells. To facilitate the screen, 10 μL of DNA-transfection reagent complexes were added in duplicates to the top 4 and bottom 4 rows, resulting in two identical 48-well arrays per plate. Plates with transfected cells were incubated for 18–20 h at 37 °C/5% CO2. A screen of each tracer across the entire library using two different concentrations requires duplicate plates of transfected cells. Depending on the number of tracers being screened, transfections can be scaled up using the same ratios. The next day, for each tracer, four 20× screening solutions in tracer dilution buffer (Promega) were prepared: two duplicates at final concentration of 20 μM and two duplicates at a final concentration of 2 μM. A competing unmodified compound was added to one of each duplicate at a final concentration of 400 μM. The four resulting solutions were diluted 4-fold in Opti-MEM without serum or phenol red to generate 5× solutions (5 µM and 0.5 µM tracer +/− 100 μM competing compound). To screen the library, a BioTek MultiFlo FX liquid dispenser was used to dispense 22.5 µL of tracer solution to the top 4 rows and 22.5 µL tracer + competing compound solution to the 4 bottom rows. Plates were briefly mixed on an orbital shaker and incubated for 1.5 h at room temperature. […]

RXFP3 = target: T3, RXFP3 (Homo sapiens, UniProt Q9NSD7); experiment: NanoBRET screen HiBiT-RXFP3 in HEK293
T3 construct: purchased Promega (in-house HiBiT-GPCR construct library, NanoBRET)
T3 sequence (Q9NSD7 1-469): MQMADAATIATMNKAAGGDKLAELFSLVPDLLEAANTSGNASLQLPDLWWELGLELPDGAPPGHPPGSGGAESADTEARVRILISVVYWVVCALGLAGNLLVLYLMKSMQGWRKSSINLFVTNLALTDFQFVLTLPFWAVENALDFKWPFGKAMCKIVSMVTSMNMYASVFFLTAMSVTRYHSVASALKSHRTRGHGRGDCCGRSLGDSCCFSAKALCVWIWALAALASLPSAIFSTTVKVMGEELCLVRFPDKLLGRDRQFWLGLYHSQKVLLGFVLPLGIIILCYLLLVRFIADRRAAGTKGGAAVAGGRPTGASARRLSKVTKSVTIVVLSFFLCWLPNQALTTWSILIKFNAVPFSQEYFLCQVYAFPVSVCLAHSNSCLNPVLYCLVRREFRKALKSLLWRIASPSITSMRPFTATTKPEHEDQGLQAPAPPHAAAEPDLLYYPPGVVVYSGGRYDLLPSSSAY
Method: as §1, §2

[1] = tracer at 1μM, listed as amitriptyline-b-2-NB590
[2] = tracer at 0.1μM, listed as amitriptyline-b-2-NB590

T1 sequence (P08588 whole entry): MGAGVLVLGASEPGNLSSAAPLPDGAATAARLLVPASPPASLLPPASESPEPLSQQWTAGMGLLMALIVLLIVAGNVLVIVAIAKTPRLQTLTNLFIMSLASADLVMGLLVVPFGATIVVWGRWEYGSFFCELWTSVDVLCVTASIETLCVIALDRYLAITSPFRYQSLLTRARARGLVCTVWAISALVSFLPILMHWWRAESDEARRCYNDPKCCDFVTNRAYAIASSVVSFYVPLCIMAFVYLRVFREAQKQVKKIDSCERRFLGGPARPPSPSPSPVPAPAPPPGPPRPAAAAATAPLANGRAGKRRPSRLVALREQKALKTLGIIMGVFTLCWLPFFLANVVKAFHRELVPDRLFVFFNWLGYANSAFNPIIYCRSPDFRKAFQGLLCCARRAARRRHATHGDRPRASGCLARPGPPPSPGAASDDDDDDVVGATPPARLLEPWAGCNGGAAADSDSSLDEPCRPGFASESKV

O=C(CCOCCOCCOCCOCCNC(=O)CCc1ccc2n1[B-](F)(F)[N+]1=C(c3ccc[nH]3)C=CC1=C2)NCCCN1CCN(C2=Nc3cc(Cl)ccc3Nc3ccccc32)CC1 [Clozapine-a-2-NB590]
NanoBRET Fold Response (ADRB1; ADRB1, 0.1μM tracer): 0.95
NanoBRET Fold Response (ADRB1; ADRB1, 1μM tracer): 0.94
NanoBRET Fold Response (GALR2; GALR2, 0.1μM tracer): 1.09
NanoBRET Fold Response (GALR2; GALR2, 1μM tracer): 1.19
NanoBRET Fold Response (RXFP3; RXFP3, 0.1μM tracer): 1.04
NanoBRET Fold Response (RXFP3; RXFP3, 1μM tracer): 0.96

COc1ccc2[nH]c(-c3ccc(CNC(=O)CCOCCOCCOCCOCCNC(=O)CCc4ccc5n4[B-](F)(F)[N+]4=C(c6ccc[nH]6)C=CC4=C5)cc3)c(CCNC(C)=O)c2n1 [AzomelatoninICO9-2-NB590]
NanoBRET Fold Response (ADRB1; 0.1μM tracer): 0.84
NanoBRET Fold Response (ADRB1; 1μM tracer): 0.96
NanoBRET Fold Response (GALR2; 0.1μM tracer): 0.92
NanoBRET Fold Response (GALR2; 1μM tracer): 1.01
NanoBRET Fold Response (RXFP3; 0.1μM tracer): 0.89
NanoBRET Fold Response (RXFP3; 1μM tracer): 1.22

CN1CCN(C2=Nc3cc(Cl)ccc3Nc3ccc(CNC(=O)CCOCCOCCOCCOCCNC(=O)CCc4ccc5n4[B-](F)(F)[N+]4=C(c6ccc[nH]6)C=CC4=C5)cc32)CC1 [Clozapine-b-2-NB590]
NanoBRET Fold Response (ADRB1; ADRB1, 0.1μM tracer): 0.99
NanoBRET Fold Response (ADRB1; ADRB1, 1μM tracer): 1.02
NanoBRET Fold Response (GALR2; GALR2, 0.1μM tracer): 0.93
NanoBRET Fold Response (GALR2; GALR2, 1μM tracer): 0.99
NanoBRET Fold Response (RXFP3; RXFP3, 0.1μM tracer): 0.99
NanoBRET Fold Response (RXFP3; RXFP3, 1μM tracer): 1.04

N#CN=C(NCCCOc1cccc(CN2CCCCC2)c1)NCCNC(=O)CCOCCOCCOCCOCCNC(=O)CCc1ccc2n1[B-](F)(F)[N+]1=C(c3ccc[nH]3)C=CC1=C2 [Aminopotentidine-2-NB590]
NanoBRET Fold Response (ADRB1; ADRB1, tracer 0.1μM): 1.01
NanoBRET Fold Response (ADRB1; ADRB1, tracer 1μM): 0.99
NanoBRET Fold Response (GALR2; GALR2, tracer 0.1μM): 0.94
NanoBRET Fold Response (GALR2; GALR2, tracer 1μM): 0.99
NanoBRET Fold Response (RXFP3; RXFP3, tracer 0.1μM): 1.04
NanoBRET Fold Response (RXFP3; RXFP3, tracer 1μM): 0.97

CN(C)CCC=C1c2ccccc2CCc2ccc(C(=O)NCCNC(=O)CCOCCOCCOCCOCCNC(=O)CCc3ccc4n3[B-](F)(F)[N+]3=C(c5ccc[nH]5)C=CC3=C4)cc21 [Amitriptyline-b-2-NB590]
NanoBRET Fold Response (ADRB1; [1]): 0.96
NanoBRET Fold Response (GALR2; [2]): 1.10
NanoBRET Fold Response (GALR2; [1]): 1.11
NanoBRET Fold Response (RXFP3; [2]): 0.98
NanoBRET Fold Response (RXFP3; [1]): 1.03

O=C(CCOCCOCCOCCOCCNC(=O)CCc1ccc2n1[B-](F)(F)[N+]1=C(c3ccc[nH]3)C=CC1=C2)NCCCN1CCN(C2=Nc3ccccc3Oc3ccc(Cl)cc32)CC1 [Loxapine-a-2-NB590]
NanoBRET Fold Response (ADRB1; ADRB1, tracer 0.1μM): 0.97
NanoBRET Fold Response (ADRB1; ADRB1, tracer 1μM): 0.97
NanoBRET Fold Response (GALR2; GALR2, tracer 0.1μM): 1.09
NanoBRET Fold Response (GALR2; GALR2, tracer 1μM): 1.12
NanoBRET Fold Response (RXFP3; RXFP3, tracer 0.1μM): 1.11
NanoBRET Fold Response (RXFP3; RXFP3, tracer 1μM): 1.22

CCCn1c(=O)c2[nH]c(-c3ccc(OCC(=O)NCCNC(=O)CCOCCNC(=O)c4ccc(CNC(=O)CCc5ccc6n5[B-](F)(F)[N+]5=C(c7ccc[nH]7)C=CC5=C6)cc4)cc3)nc2n(CCC)c1=O [XAC-3-NB590]
NanoBRET Fold Response (ADRB1; ADRB1, tracer 0.1μM): 1.07
NanoBRET Fold Response (ADRB1; ADRB1, tracer 1μM): 1.05
NanoBRET Fold Response (GALR2; GALR2, tracer 0.1μM): 1.07
NanoBRET Fold Response (GALR2; GALR2, tracer 1μM): 0.96
NanoBRET Fold Response (RXFP3; RXFP3, tracer 0.1μM): 0.95
NanoBRET Fold Response (RXFP3; RXFP3, tracer 1μM): 0.92

CN(C)CCC=C1c2ccccc2CCc2ccc(C(=O)NCCNC(=O)CCOCCOCCOCCOCCNC(=O)CCc3ccc4n3[B-](F)(F)[N+]3=C(c5ccc[nH]5)C=CC3=C4)cc21 [Amitriptyline-a-2-NB590]
NanoBRET Fold Response (ADRB1; tracer at 0.1μM): 1.05
NanoBRET Fold Response (ADRB1; tracer at 1μM): 1.18
NanoBRET Fold Response (GALR2; tracer at 0.1μM): 1.02
NanoBRET Fold Response (GALR2; tracer at 1μM): 0.99
NanoBRET Fold Response (RXFP3; tracer at 0.1μM): 0.97
NanoBRET Fold Response (RXFP3; tracer at 1μM): 0.99

CCOC(=O)c1cc(C#N)c(N2CCC(C(=O)NS(=O)(=O)Cc3ccccc3/C=C/C(=O)NCCNC(=O)CCc3ccc4n3[B-](F)(F)[N+]3=C(c5ccc[nH]5)C=CC3=C4)CC2)nc1C [AZD1283-1-NB590]
NanoBRET Fold Response (ADRB1; ADRB1, 0.1μM): 1.05
NanoBRET Fold Response (ADRB1; ADRB1, 1μM): 1.09
NanoBRET Fold Response (GALR2; GALR2, 0.1μM): 1.09
NanoBRET Fold Response (GALR2; GALR2, 1μM): 1.04
NanoBRET Fold Response (RXFP3; RXFP3, 0.1μM): 0.94
NanoBRET Fold Response (RXFP3; RXFP3, 1μM): 1.12
